Experimental findings from US12187723B2 (BRISTOL-MYERS SQUIBB COMPANY, priority 2019, dated 2025) are described below.

SMILES strings stand for the structures. Bounds are passed on as bounds.

This test has as its target T1, human TLR9 (Homo sapiens, UniProt Q9NR96).
T1 construct: host or cells: HEK-Blue cells
T1 sequence (Q9NR96 26-1032): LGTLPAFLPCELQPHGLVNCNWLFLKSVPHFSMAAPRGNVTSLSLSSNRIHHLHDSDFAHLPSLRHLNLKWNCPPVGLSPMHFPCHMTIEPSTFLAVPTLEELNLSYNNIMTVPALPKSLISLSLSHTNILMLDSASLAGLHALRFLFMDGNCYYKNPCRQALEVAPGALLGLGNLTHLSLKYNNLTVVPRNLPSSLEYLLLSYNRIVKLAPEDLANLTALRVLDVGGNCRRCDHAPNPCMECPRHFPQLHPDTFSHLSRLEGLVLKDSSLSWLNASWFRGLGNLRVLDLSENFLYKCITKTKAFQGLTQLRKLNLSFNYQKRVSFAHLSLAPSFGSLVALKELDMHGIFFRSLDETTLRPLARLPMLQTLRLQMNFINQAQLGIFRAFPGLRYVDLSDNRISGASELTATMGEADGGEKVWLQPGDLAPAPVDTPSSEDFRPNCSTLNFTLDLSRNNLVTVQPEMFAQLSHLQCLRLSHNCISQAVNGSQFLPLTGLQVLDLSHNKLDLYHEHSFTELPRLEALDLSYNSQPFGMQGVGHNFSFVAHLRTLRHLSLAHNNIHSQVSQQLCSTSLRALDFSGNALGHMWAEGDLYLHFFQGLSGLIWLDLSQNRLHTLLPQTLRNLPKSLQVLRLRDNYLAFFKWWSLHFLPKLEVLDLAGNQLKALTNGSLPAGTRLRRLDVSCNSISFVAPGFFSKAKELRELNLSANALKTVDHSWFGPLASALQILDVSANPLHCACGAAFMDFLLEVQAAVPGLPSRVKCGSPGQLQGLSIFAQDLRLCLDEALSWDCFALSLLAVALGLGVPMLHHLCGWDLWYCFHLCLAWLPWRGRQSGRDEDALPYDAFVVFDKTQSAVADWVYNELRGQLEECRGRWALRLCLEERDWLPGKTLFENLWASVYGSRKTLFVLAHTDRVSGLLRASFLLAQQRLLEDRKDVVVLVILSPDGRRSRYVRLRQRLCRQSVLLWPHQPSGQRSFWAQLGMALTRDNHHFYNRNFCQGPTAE
Description: TLR9 inhibition reporter assay (HEK-Blue SEAP). The format is cell-based. As to conditions: HEK-Blue cells overexpressing human TLR9, ODN2006 5 nM, 22 hour incubation. The method, boiled down: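 Screening used HEK-Blue cells overexpressing one human TLR (7, 8 or 9) and an IFN-β minimal promoter–NF-κB/AP-1 SEAP construct. Stimulation lasted 22 h at 37 °C with receptor-specific agonist: gardiquimod, R848 or ODN2006 at 7.5 μM, 15.9 μM and 5 nM.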
In general terms: A reporter such as luciferase makes a cellular process visible.
The compound `COc1cc(-c2cc3[nH]c(=O)n(C4CCC(N5C[C@@H](F)[C@@H](F)C5)CC4)c3cc2C(C)C)cn2ncnc12` (single isomer, unassigned) [Example 293] had an IC50 of 23.4 µM.
As for `COc1c(C)c(-c2cc3[nH]c(=O)n(C4CCC(N5CCCOCC5)CC4)c3cc2C(C)C)cn2ncnc12` (single isomer, unassigned) [Example 261, 1-(4-(1,4-oxazepan-4-yl)cyclohexyl)-6-isopropyl-5-(8-methoxy-7-methyl-[1,2,4]triazolo[1,5-a]pyridin-6-yl)-1,3-dihydro-2H-benzo[d]imidazol-2-one], the IC50 came to 18.7 µM.
The compound `COc1cc(-c2cc3[nH]c(=O)n(C4CCC(N5CC6(COC6)C5)CC4)c3cc2C(C)C)cn2ncnc12` (stereo not shown) [Example 254, 1-(4-(2-oxa-6-azaspiro[3.3]heptan-6-yl)cyclohexyl)-6-isopropyl-5-(8-methoxy-[1,2,4]triazolo[1,5-a]pyridin-6-yl)-1,3-dihydro-2H-benzo[d]imidazol-2-one] returned an IC50 of 14.1 µM.
Regarding `COc1c(C)c(-c2cc3[nH]c(=O)n(C4CCC(N5CC6(COC6)C5)CC4)c3cc2C(C)C)cn2ncnc12` (single isomer, unassigned) [Example 270, 1-(4-(2-oxa-6-azaspiro[3.3]heptan-6-yl)cyclohexyl)-6-isopropyl-5-(8-methoxy-7-methyl-[1,2,4]triazolo[1,5-a]pyridin-6-yl)-1,3-dihydro-2H-benzo[d]imidazol-2-one], the midpoint of inhibition, the IC50, lay at 11.6 µM.
For the compound `Cc1c(-c2cc3[nH]c(=O)n(C4CCC(N5CCC(F)(F)CC5)CC4)c3cc2C(C)C)cn2ncnc2c1C` (single isomer, unassigned) [Example 275, 1-(4-(4,4-difluoropiperidin-1-yl)cyclohexyl)-5-(7,8-dimethyl-[1,2,4]triazolo[1,5-a]pyridin-6-yl)-6-isopropyl-1,3-dihydro-2H-benzo[d]imidazol-2-one], the IC50 was 19.9 µM.
Compound `COc1c(C)c(-c2cc3[nH]c(=O)n(C4CCC(N5CC(F)C5)CC4)c3cc2C(C)C)cn2ncnc12` (single isomer, unassigned) [Example 264, 1-(4-(3-fluoroazetidin-1-yl)cyclohexyl)-6-isopropyl-5-(8-methoxy-7-methyl-[1,2,4]triazolo[1,5-a]pyridin-6-yl)-1,3-dihydro-2H-benzo[d]imidazol-2-one] yielded an IC50 of 17.5 µM.
On to `Cc1c(-c2cc3[nH]c(=O)n(C4CCC(N5CCC6(CC5)COC6)CC4)c3cc2C(C)C)cn2ncnc2c1C` (single isomer, unassigned) [Example 283, 1-(4-(2-oxa-7-azaspiro[3.5]nonan-7-yl)cyclohexyl)-5-(7,8-dimethyl-[1,2,4]triazolo[1,5-a]pyridin-6-yl)-6-isopropyl-1,3-dihydro-2H-benzo[d]imidazol-2-one], for which the concentration for half-maximal inhibition (IC50) was 5.34 µM.
With `Cc1c(-c2cc3[nH]c(=O)n(C4CCC(N5CCC6(CC5)COC6)CC4)c3cc2C(C)C)cn2ncnc2c1C` (single isomer, unassigned) [Example 282, 1-(4-(2-oxa-7-azaspiro[3.5]nonan-7-yl)cyclohexyl)-5-(7,8-dimethyl-[1,2,4]triazolo[1,5-a]pyridin-6-yl)-6-isopropyl-1,3-dihydro-2H-benzo[d]imidazol-2-one], inhibition was half-maximal at 14.4 µM (IC50).
In turn, `Cc1c(-c2cc3[nH]c(=O)n(C4CCC(N5CCCOCC5)CC4)c3cc2C(C)C)cn2ncnc2c1C` (stereo not shown) [Example 272, 1-(4-(1,4-oxazepan-4-yl)cyclohexyl)-5-(7,8-dimethyl-[1,2,4]triazolo[1,5-a]pyridin-6-yl)-6-isopropyl-1,3-dihydro-2H-benzo[d]imidazol-2-one] yielded an IC50 of 6.75 µM.
`COc1cc(-c2cc3[nH]c(=O)n(C4CCC(N5CC[C@H](F)C5)CC4)c3cc2C(C)C)cn2ncnc12` (stereo partly drawn) [Example 287, (S)-1-(4-(3-fluoropyrrolidin-1-yl)cyclohexyl)-6-isopropyl-5-(8-methoxy-[1,2,4]triazolo[1,5-a]pyridin-6-yl)-1,3-dihydro-2H-benzo[d]imidazol-2-one] yielded an IC50 of 10.9 µM.
Under `COc1cc(-c2ccc3c(c2)[nH]c(=O)n3C2CCNCC2)cn2ncnc12` [1 EI, 5-(8-methoxy-[1,2,4]triazolo[1,5-a]pyridin-6-yl)-1-(piperidin-4-yl)-1,3-dihydro-2H-benzo[d]imidazol-2-one] stands 1.18 µM; under `COc1c(C)c(-c2cc3[nH]c(=O)n(C4CCC(N5CCC6(CC5)COC6)CC4)c3cc2C(C)C)cn2ncnc12` (single isomer, unassigned) [Example 267, 1-(4-(2-oxa-7-azaspiro[3.5]nonan-7-yl)cyclohexyl)-6-isopropyl-5-(8-methoxy-7-methyl-[1,2,4]triazolo[1,5-a]pyridin-6-yl)-1,3-dihydro-2H-benzo[d]imidazol-2-one], above 50 µM; under `COc1c(C)c(-c2cc3[nH]c(=O)n(C4CCC(N5CCCOCC5)CC4)c3cc2C(C)C)cn2ncnc12` (single isomer, unassigned) [Example 262, 1-(4-(1,4-oxazepan-4-yl)cyclohexyl)-6-isopropyl-5-(8-methoxy-7-methyl-[1,2,4]triazolo[1,5-a]pyridin-6-yl)-1,3-dihydro-2H-benzo[d]imidazol-2-one], 15.5 µM.
Turning to `COc1c(C)c(-c2cc3[nH]c(=O)n(C4CCC(N5CC6(COC6)C5)CC4)c3cc2C(C)C)cn2ncnc12` (single isomer, unassigned) [Example 269, 1-(4-(2-oxa-6-azaspiro[3.3]heptan-6-yl)cyclohexyl)-6-isopropyl-5-(8-methoxy-7-methyl-[1,2,4]triazolo[1,5-a]pyridin-6-yl)-1,3-dihydro-2H-benzo[d]imidazol-2-one], the midpoint of inhibition, the IC50, lay at 25.6 µM.
As for `Cc1c(-c2cc3[nH]c(=O)n(C4CCC(N5CCCOCC5)CC4)c3cc2C(C)C)cn2ncnc2c1C` (stereo not shown) [Example 271, 1-(4-(1,4-oxazepan-4-yl)cyclohexyl)-5-(7,8-dimethyl-[1,2,4]triazolo[1,5-a]pyridin-6-yl)-6-isopropyl-1,3-dihydro-2H-benzo[d]imidazol-2-one], the figure is 8.16 µM; as for `COc1cc(-c2cc3[nH]c(=O)n(C4CCC(N5CCC(S(C)(=O)=O)C5)CC4)c3cc2C(C)C)cn2ncnc12` (single isomer, unassigned) [Example 289, 6-isopropyl-5-(8-methoxy-[1,2,4]triazolo[1,5-a]pyridin-6-yl)-1-(4-(3-(methylsulfonyl)pyrrolidin-1-yl)cyclohexyl)-1,3-dihydro-2H-benzo[d]imidazol-2-one], above 50 µM.
`COC[C@@H]1CCN(C2CCC(n3c(=O)[nH]c4cc(-c5cc(OC)c6ncnn6c5)c(C(C)C)cc43)CC2)C1` (single isomer, unassigned) [Example 291] came in with an IC50 of 12.3 µM.
Turning to `COc1cc(-c2cc3[nH]c(=O)n(C4CCC(N5CCC(F)(F)C5)CC4)c3cc2C(C)C)cn2ncnc12` (single isomer, unassigned) [Example 294, 1-(4-(3,3-difluoropyrrolidin-1-yl)cyclohexyl)-6-isopropyl-5-(8-methoxy-[1,2,4]triazolo[1,5-a]pyridin-6-yl)-1,3-dihydro-2H-benzo[d]imidazol-2-one], the IC50 amounted to 35.2 µM.
Consider `Cc1cc2c(cc1-c1cc(C)c3ncnn3c1)[nH]c(=O)n2[C@H]1CC[C@@H](NC2CCOCC2)CC1` [Example 30, 6-methyl-5-(8-methyl-[1,2,4]triazolo[1,5-a]pyridin-6-yl)-1-((1s,4s)-4-((tetrahydro-2H-pyran-4-yl)amino)cyclohexyl)-1,3-dihydro-2H-benzo[d]imidazol-2-one], for which the IC50 is 4.49 µM.

As usually defined, the IC50 is the concentration needed to halve the response being measured. A higher IC50 goes with lower potency.
